The source made the active and inactive calls.
Experiments:
Format in all cases: functional, organism-based
Candida albicans = test: Antimicrobial activity against Candida albicans at 25 ug/disk
Bacillus subtilis = test: Antimicrobial activity against Bacillus subtilis at 5 ug/disk
Staphylococcus aureus = test: Antimicrobial activity against Staphylococcus aureus at 10 ug/disk

Measured: Activity

CNC(Cc1cc(Br)c(OC)c(Br)c1)C(=O)NCCCOc1c(Br)cc(CCN(C)C)cc1Br (stereo not drawn)
active: all assays above
